Some test systems named below: DLD-1 colon; DMS 114 small cell lung; HOP-18 NSCLC; KM20L2 colon; LXFL 529 NSCLC; M19-MEL melanoma; SNB-78 CNS; XF 498 CNS; RXF-631 renal.
Common to all, as to assay: growth of human tumour cells (NCI), 48 h

22 molecules from PubChem BioAssay (NCI) can be followed below.

The structures appear in SMILES notation.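 In this assay, cells in 96-well plates receive the compound at five concentrations for 48 hours. Endpoints are linearly interpolated between the surrounding concentrations. The concentration for 50% growth inhibition is given as GI50. TGI denotes the concentration required for complete inhibition of growth.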 Some results are limits rather than exact numbers.

Consider `CC(C)(C)C1CCP(=O)(c2ccccc2)CC1` (centres undefined), for which the TGI in the test with DLD-1 colon, in the test with DMS 114 small cell lung, in the test on HOP-18 NSCLC, in the test on KM20L2 colon, with LXFL 529 NSCLC and in the test on M19-MEL melanoma was > 100 µM in each case. Besides, the TGI with SNB-78 CNS and in the test on XF 498 CNS was > 100 µM throughout.

`Cc1ccc(C)c(NC(=O)C(=O)CC(=O)c2cccc3ccccc23)c1`: the TGI in the test with DLD-1 colon, in the test with DMS 114 small cell lung, in the test on HOP-18 NSCLC, with KM20L2 colon, with LXFL 529 NSCLC and with M19-MEL melanoma was > 100 µM throughout. For the same molecule, the TGI in the test on RXF-631 renal and with SNB-78 CNS was > 100 µM in each case.

Turning to `C=C(CS(=O)(=O)c1ccccc1)C(=O)OCC`, the TGI stood at 21.4 µM with DLD-1 colon; 25.7 µM in the test on DMS 114 small cell lung; 45.3 µM in the test on KM20L2 colon; 27 µM with LXFL 529 NSCLC; 16.8 µM in the test with RXF-631 renal; 33.4 µM in the test on XF 498 CNS.

For the molecule `CN(C(=O)C12C3C4C1C1C2C3C41C(=O)N(C)C(C)(C)C)C(C)(C)C` (centres undefined), the TGI in the test with DMS 114 small cell lung, in the test with KM20L2 colon, with LXFL 529 NSCLC, in the test with M19-MEL melanoma, in the test on RXF-631 renal and with SNB-78 CNS was > 50 µM in each case. For the same molecule, in the test with XF 498 CNS, the TGI is > 50 µM.

In the case of `NC(=O)c1ccccc1NC(=O)C(=O)Nc1n[nH]c(N)n1`, the TGI in the test on DLD-1 colon, in the test with HOP-18 NSCLC, with KM20L2 colon, with LXFL 529 NSCLC, in the test with M19-MEL melanoma and in the test on SNB-78 CNS was > 100 µM in each case. In the test on XF 498 CNS, the TGI was > 100 µM.

In the case of `Cc1ccc(S(=O)(=O)Nc2cccc(C)c2C)cc1`, the TGI in the test on DMS 114 small cell lung, with HOP-18 NSCLC, with LXFL 529 NSCLC, in the test with M19-MEL melanoma, in the test on RXF-631 renal and in the test with SNB-78 CNS was > 100 µM in each case.

Regarding `O=S1c2ccccc2N=C(c2ccc3ccccc3c2)CC1c1ccccc1F` (centres undefined), the TGI in the test on DLD-1 colon, with DMS 114 small cell lung, in the test with HOP-18 NSCLC, in the test with KM20L2 colon, in the test on LXFL 529 NSCLC and in the test with M19-MEL melanoma was > 100 µM in each case. The TGI in the test with RXF-631 renal and in the test on XF 498 CNS was > 100 µM in each case.

Consider `COc1cc(-c2ccc(Nc3ccccc3C(=O)O)c(OC)c2)ccc1Nc1ccccc1C(=O)O`, for which the TGI in the test with DLD-1 colon is > 72.8 µM; in the test with DMS 114 small cell lung, > 100 µM; in the test with HOP-18 NSCLC it was > 100 µM; in the test on KM20L2 colon it was > 100 µM; with LXFL 529 NSCLC, > 100 µM; in the test with SNB-78 CNS, > 100 µM. Moreover, the TGI in the test on XF 498 CNS is > 100 µM.

Take `COc1cc(-c2ccccc2)c(OC)cc1CCl`: the TGI in the test with DLD-1 colon, in the test on DMS 114 small cell lung, in the test on HOP-18 NSCLC, with KM20L2 colon, in the test with M19-MEL melanoma and with RXF-631 renal was > 100 µM throughout. The TGI with SNB-78 CNS and with XF 498 CNS was > 100 µM throughout.

For the molecule `Cc1nn2c(=O)n(-c3cccc(-n4nnc5c(-c6ccccc6)c(C)nn5c4=O)c3C)nnc2c1-c1ccccc1`, the TGI is 91.6 µM in the test with DLD-1 colon; 30.2 µM in the test with DMS 114 small cell lung; > 100 µM in the test with HOP-18 NSCLC; 42.1 µM in the test with KM20L2 colon; > 100 µM with LXFL 529 NSCLC; > 100 µM in the test on M19-MEL melanoma. Further, the TGI in the test with SNB-78 CNS is > 100 µM; in the test on XF 498 CNS, 40.1 µM.

For `COC(=O)[C@H]1CC(=O)C=C2CCCC21` (some centres undefined), the TGI with DLD-1 colon, with DMS 114 small cell lung, in the test with LXFL 529 NSCLC, in the test with M19-MEL melanoma, in the test on RXF-631 renal and in the test on XF 498 CNS was > 100 µM throughout.

Regarding `CN=c1ss/c(=N\C(=S)N(C)C)n1C1CCCCC1`, the TGI with DLD-1 colon is > 100 µM; in the test with DMS 114 small cell lung, > 31.6 µM; in the test on HOP-18 NSCLC it was > 31.6 µM; with KM20L2 colon, > 31.6 µM; with LXFL 529 NSCLC, > 31.6 µM; in the test with M19-MEL melanoma, > 31.6 µM. The results for the TGI with RXF-631 renal, in the test on SNB-78 CNS and in the test on XF 498 CNS were > 100 µM, > 31.6 µM and > 31.6 µM, respectively.

As for `CC1=C(C(=O)Nc2cccc(C(F)(F)F)c2)C(c2ccccc2F)C(C(=O)Nc2cccc(C(F)(F)F)c2)=C(C)N1`, the TGI was 20.3 µM in the test on DLD-1 colon; 14.2 µM in the test with DMS 114 small cell lung; 18.4 µM with KM20L2 colon; 19.2 µM in the test on LXFL 529 NSCLC; 21.3 µM in the test with M19-MEL melanoma; 23.2 µM with RXF-631 renal. For the same molecule, the values for the TGI with SNB-78 CNS and in the test on XF 498 CNS were 65.6 µM and 14.6 µM, respectively.

Regarding `O=c1c2cc(Br)ccc2[nH]c(=S)n1-c1ccccc1`, the TGI with DLD-1 colon, with HOP-18 NSCLC, with KM20L2 colon, in the test with M19-MEL melanoma, in the test with RXF-631 renal and in the test with SNB-78 CNS was > 100 µM each time.

As for `CC(C)(C)C1CCC(CI)(N=[N+]=[N-])CC1` (centres undefined), the TGI in the test with DLD-1 colon, in the test with DMS 114 small cell lung, with HOP-18 NSCLC, with KM20L2 colon, in the test on LXFL 529 NSCLC and in the test on M19-MEL melanoma was > 100 µM in each case. Besides, the TGI in the test with SNB-78 CNS and in the test with XF 498 CNS was > 100 µM each time.

Turning to `O=C1C=CC(=O)c2c1cc1ccccc1c2O`, the TGI in the test with DLD-1 colon was 3.24 µM; in the test on HOP-18 NSCLC it was 32.3 µM; in the test with KM20L2 colon, 40.2 µM; in the test with LXFL 529 NSCLC it was 3.99 µM; with M19-MEL melanoma it was 11.3 µM; with SNB-78 CNS, 10.5 µM. In the test on XF 498 CNS, this molecule gave a TGI of 8.39 µM.

Regarding `[CH3][Sn]([CH3])([CH3])[O]C(=O)C(O)c1ccccc1` (centres undefined), the GI50 in the test on DLD-1 colon is 4.93 µM; in the test with DMS 114 small cell lung, 5.78 µM; in the test with HOP-18 NSCLC, > 100 µM; with KM20L2 colon it was 2.98 µM; with LXFL 529 NSCLC, 2.98 µM; with M19-MEL melanoma it was 3.31 µM. For the same molecule, the GI50 in the test with SNB-78 CNS was 42.7 µM; in the test on XF 498 CNS, 2.92 µM. For the same molecule, the TGI with DLD-1 colon was > 100 µM; with DMS 114 small cell lung, 31.2 µM; in the test with HOP-18 NSCLC, > 100 µM; with KM20L2 colon, 9.42 µM; in the test on LXFL 529 NSCLC, > 28.4 µM; in the test on M19-MEL melanoma, 9.6 µM. Besides, the TGI is > 100 µM in the test with SNB-78 CNS and 20.9 µM in the test with XF 498 CNS.

On to `CC1(C)C(=O)CCC(=O)C(C)(C)C2=CC=C(O2)C(C)(C)C(=O)CCC(=O)C(C)(C)C2=CC=C1O2`, for which the TGI in the test with HOP-18 NSCLC, in the test on KM20L2 colon, in the test on LXFL 529 NSCLC, with M19-MEL melanoma and in the test on SNB-78 CNS was > 100 µM each time.

For the molecule `CC(N)CN.CC(N)CN.[Cl-].[O]=[Os+2]=[O]` (centres undefined), the GI50 with DLD-1 colon was > 100 µM; in the test on DMS 114 small cell lung, 47.6 µM; in the test with HOP-18 NSCLC it was 25.9 µM; in the test on KM20L2 colon it was 89.6 µM; in the test on LXFL 529 NSCLC it was 53.1 µM; with M19-MEL melanoma, 7.59 µM. Moreover, the figures for the GI50 with RXF-631 renal and in the test on SNB-78 CNS were 96.9 µM and > 100 µM, respectively. Besides, the TGI in the test with DLD-1 colon was > 100 µM; in the test with DMS 114 small cell lung, > 100 µM; in the test with HOP-18 NSCLC, > 100 µM; with KM20L2 colon, > 100 µM; with LXFL 529 NSCLC it was > 100 µM; with M19-MEL melanoma, 26.3 µM. In addition, the TGI in the test on RXF-631 renal and in the test with SNB-78 CNS was > 100 µM in each case.

Regarding `COc1ccc(/C=c2\sc3nnc(CCC(=O)Nc4cccc(C(F)(F)F)c4)n3c2=O)cc1`, the TGI in the test with DLD-1 colon, with DMS 114 small cell lung, in the test with HOP-18 NSCLC, in the test with KM20L2 colon, with LXFL 529 NSCLC and with M19-MEL melanoma was > 100 µM each time. Moreover, the TGI in the test on RXF-631 renal, in the test with SNB-78 CNS and with XF 498 CNS was > 100 µM throughout.

As for `COC(=O)CSc1n[nH]c(-c2ccccc2)n1`, the TGI with DLD-1 colon, with DMS 114 small cell lung, with HOP-18 NSCLC, in the test on KM20L2 colon, with LXFL 529 NSCLC and in the test on M19-MEL melanoma was > 100 µM throughout. The TGI with SNB-78 CNS was > 100 µM.

With `CN(C)CCCNC(=O)c1cccc2nc3ccccc3nc12`, the TGI is > 100 µM with DLD-1 colon; 30 µM in the test on DMS 114 small cell lung; > 86.9 µM with HOP-18 NSCLC; > 100 µM with KM20L2 colon; > 95.2 µM with LXFL 529 NSCLC; 16.4 µM in the test with M19-MEL melanoma. The TGI with RXF-631 renal is > 100 µM; in the test with SNB-78 CNS it was > 71.6 µM; in the test with XF 498 CNS, 2.1 µM.
